Where two headings read alike, the source gives them in different places.

We go through seven molecules from US11078207B2, “Substituted pyrrolo[2,3-d]pyrimidines as HER2 inhibitors” (TAIHO PHARMACEUTICAL CO., LTD., priority 2019, dated 2021).

The target of one series is T1, HER2 (Homo sapiens, UniProt P04626).
T1 construct: purchased Carna Biosciences, Inc
Kind of series: Inhibitory effect (in vitro) on HER2 phosphorylation activity. The note with it: recombinant human HER2, ATP 5 μM, 25° C. 30 minutes. In kind it is biochemical. The text has this: In order to determine conditions for a method of measuring the in vitro inhibitory activity of a compound against HER2 phosphorylation activity, based on the report regarding a HER2 kinase reaction using, as a substrate, a peptide having the same sequence (5-FAM-[…]-CONH2) as that of ProfilerPro Peptide 22 of PerkinElmer (Xie H et al., PLoS One. 2011; 6(7): e21487), ProfilerPro Peptide 22 was used as a substrate. A purified recombinant human HER2 protein used in the present test was purchased from Carna Biosciences, Inc. Upon the measurement of the inhibitory activity of the compound, first, the compound of the present invention was diluted stepwise with dimethyl sulfoxide (DMSO). […] To the reaction solution, EDTA was added to a final concentration of 30 mM, so as to terminate the reaction. Finally, using LabChip (registered trademark) EZ Reader II (PerkinElmer), an unphosphorylated substrate peptide (S) and a phosphorylated peptide (P) were separated and detected according to microchannel capillary electrophoresis.

A short description of series [1]: Evaluation of brain penetration properties. The class given is in vivo, BALB/cA mice. To be noted: mouse, 0.5 hours after oral 50 mg/kg/day, BALB/cA mice; for Kp at 0.5 h: read-out: Kp value (Compound concentration in brain/plasma).
Series [2] in a line: Evaluation of oral absorbability. The class given is in vivo, BALB/cA mice. To be noted: mouse; plasma, oral 50 mg/kg/day, BALB/cA mice. The procedure: The compound of the present invention was suspended or dissolved in 0.5% HPMC aqueous solution and 0.1 N hydrochloric acid, and the obtained suspension or solution was orally administered to BALB/cA mice (CLEA Japan, Inc.) at a dose of 50 mg/kg/day. At 0.5, 1, 2, 4 and 6 hours after completion of the oral administration, blood was collected from the facial vein over time, so as to obtain plasma. The concentration of the compound in the obtained plasma was measured by LC-MS/MS, and the oral absorbability of the present compound was evaluated.

In a further series the target is Ba/F3-HER2insYVMA cells (Homo sapiens, UniProt P04626, DUP772-775, cells depend on it). The series can be described thus: Growth inhibitory activity against HER2 exon 20 insertion mutant expressing cell line. The class given is cell-based, mouse. To be noted: 3 days, CellTiter-Glo 2.0, read-out: HER2ex20insYVMA cell growth inhibitory activity IC50 value. The procedure:
Growth inhibitory activity against the HER2 exon 20 insertion mutant was measured using Ba/F3 cells that were a mouse B lymphocyte precursor cell line, into which a human HER2 exon 20 insertion mutant gene had been introduced. The Ba/F3 cells were maintained in an RPMI-1640 medium (Thermo Fisher Scientific) supplemented with 10% fetal bovine serum (FBS), 100 U/mL penicillin, 100 μg/mL streptomycin (Thermo Fisher Scientific) and 1 ng/mL mouse interleukin-3 (mIL-3) (CST).
Upon evaluation of cell growth inhibitory activity, the Ba/F3-HER2insYVMA cells were suspended in an RPMI-1640 medium supplemented with 10% FBS, 100 U/mL penicillin, and 100 μg/mL streptomycin. The cell suspension was seeded in each well of a 96-well flat-bottom microplate, and was then cultured in a 5% carbon dioxide gas-containing culture vessel at 37° C. for 1 day. The compound of the present invention was dissolved in DMSO, and was then diluted with DMSO or the medium used in the suspension of the cells. The obtained solution was then added to each well of the culture plate, so that the final concentration of DMSO became 0.2%. The obtained mixture was further cultured in the 5% carbon dioxide gas-containing culture vessel at 37° C. for 3 days. After completion of the culture for 3 days in the presence of the compound, the cells were counted using CellTiter-Glo 2.0 (manufactured by Promega), and the growth inhibition percentage was then calculated according to the following equation. […] Growth inhibitory percentage (%)=(C−T)/(C)×100 T: Emission intensity from the well to which the test compound was added C: Emission intensity from the well to which the test compound was not added
In general terms: ATP-based viability assays read luminescence as a measure of living cells.

The target in series [3] is HER2 exon 20 insertion mutant (HER2ex20insYVMA, A775_G776insYVMA) (Homo sapiens, UniProt P04626, DUP772-775). The series can be described thus: Inhibitory action (in vitro) against HER2 exon 20 insertion mutant phosphorylation activity. The class given is biochemical. The note with it: 30 min pre-incubation, ATP 200 μM, 25° C. 220 minutes. The text has this:
In order to determine conditions for a method of measuring the in vitro inhibitory activity of a compound against HER2 exon 20 insertion mutant phosphorylation activity, as in the case of HER2, ProfilerPro Peptide 22 was used as a substrate. A purified recombinant human HER2 exon 20 insertion mutant (A775_G776insYVMA) protein is shown in SEQ ID NO: 7, and was purchased from SignalChem. Upon the measurement of the inhibitory activity of the compound, first, the compound of the present invention was diluted stepwise with dimethyl sulfoxide (DMSO). Subsequently, the HER2 exon 20 insertion mutant protein and the compound of the present invention in DMSO solution (final concentration of DMSO: 5%) were added into a buffer for the kinase reaction (13.5 mM Tris (pH 7.5), 2 mM dithiothreitol, and 0.009% Tween 20), and the obtained mixture was then pre-incubated at 25° C. for 30 minutes. Thereafter, the substrate peptide (final concentration: 1 μM), manganese chloride (final concentration: 25 mM), magnesium chloride (final concentration: 20 mM), and ATP (final concentration: 200 μM) were added into the reaction mixture, and the thus obtained mixture was then incubated at 25° C. for 220 minutes, so that the kinase reaction was carried out. To the reaction solution, EDTA was added to a final concentration of 30 mM, so as to terminate the reaction. Finally, using LabChip (registered trademark) EZ Reader II (PerkinElmer), an unphosphorylated substrate peptide (S) and a phosphorylated peptide (P) were separated and detected according to microchannel capillary electrophoresis.

A further series relates to SK-BR-3 cells. Kind of series: Growth inhibitory activity against HER2 expressing cell line SK-BR-3. The class given is cell-based. To be noted: Homo sapiens, SK-BR-3, 72 h; 3 days, CellTiter-Glo 2.0. As for the experimental part:
SK-BR-3 cells as a HER2 overexpressing human breast cancer cell line were suspended in a McCoy's 5a medium (manufactured by Life Technologies) supplemented with 10% fetal bovine serum. The cell suspension was seeded in each well of a 384-well flat-bottom microplate, and was then cultured in a 5% carbon dioxide gas-containing culture vessel at 37° C. for 1 day. Thereafter, the compound of the present invention was dissolved in DMSO, and the compound was diluted to 500 times the final concentration in DMSO. The compound in the DMSO solution was diluted with DMSO solution or the medium used in the suspension of the cells, and the obtained solution was then added to each well of the culture plate so that the final concentration of DMSO was 0.2%. The obtained mixture was further cultured in the 5% carbon dioxide gas-containing culture vessel at 37° C. for 3 days. After completion of the culture for 3 days in the presence of the compound, the cells were counted using CellTiter-Glo 2.0 (manufactured by Promega), and the growth inhibition percentage was then calculated according to the following equation. […] Growth inhibitory percentage (%)=(C−T)/(C)×100 T: Emission intensity from the well to which the test compound was added C: Emission intensity from the well to which the test compound was not added

Where [4] appears, read: brain, read-out: Compound concentration in brain.
[5] abbreviates: plasma, read-out: Compound concentration in plasma.

Sequence of Ba/F3-HER2insYVMA cells (P04626 with tags, fused parts or gaps DUP772-775): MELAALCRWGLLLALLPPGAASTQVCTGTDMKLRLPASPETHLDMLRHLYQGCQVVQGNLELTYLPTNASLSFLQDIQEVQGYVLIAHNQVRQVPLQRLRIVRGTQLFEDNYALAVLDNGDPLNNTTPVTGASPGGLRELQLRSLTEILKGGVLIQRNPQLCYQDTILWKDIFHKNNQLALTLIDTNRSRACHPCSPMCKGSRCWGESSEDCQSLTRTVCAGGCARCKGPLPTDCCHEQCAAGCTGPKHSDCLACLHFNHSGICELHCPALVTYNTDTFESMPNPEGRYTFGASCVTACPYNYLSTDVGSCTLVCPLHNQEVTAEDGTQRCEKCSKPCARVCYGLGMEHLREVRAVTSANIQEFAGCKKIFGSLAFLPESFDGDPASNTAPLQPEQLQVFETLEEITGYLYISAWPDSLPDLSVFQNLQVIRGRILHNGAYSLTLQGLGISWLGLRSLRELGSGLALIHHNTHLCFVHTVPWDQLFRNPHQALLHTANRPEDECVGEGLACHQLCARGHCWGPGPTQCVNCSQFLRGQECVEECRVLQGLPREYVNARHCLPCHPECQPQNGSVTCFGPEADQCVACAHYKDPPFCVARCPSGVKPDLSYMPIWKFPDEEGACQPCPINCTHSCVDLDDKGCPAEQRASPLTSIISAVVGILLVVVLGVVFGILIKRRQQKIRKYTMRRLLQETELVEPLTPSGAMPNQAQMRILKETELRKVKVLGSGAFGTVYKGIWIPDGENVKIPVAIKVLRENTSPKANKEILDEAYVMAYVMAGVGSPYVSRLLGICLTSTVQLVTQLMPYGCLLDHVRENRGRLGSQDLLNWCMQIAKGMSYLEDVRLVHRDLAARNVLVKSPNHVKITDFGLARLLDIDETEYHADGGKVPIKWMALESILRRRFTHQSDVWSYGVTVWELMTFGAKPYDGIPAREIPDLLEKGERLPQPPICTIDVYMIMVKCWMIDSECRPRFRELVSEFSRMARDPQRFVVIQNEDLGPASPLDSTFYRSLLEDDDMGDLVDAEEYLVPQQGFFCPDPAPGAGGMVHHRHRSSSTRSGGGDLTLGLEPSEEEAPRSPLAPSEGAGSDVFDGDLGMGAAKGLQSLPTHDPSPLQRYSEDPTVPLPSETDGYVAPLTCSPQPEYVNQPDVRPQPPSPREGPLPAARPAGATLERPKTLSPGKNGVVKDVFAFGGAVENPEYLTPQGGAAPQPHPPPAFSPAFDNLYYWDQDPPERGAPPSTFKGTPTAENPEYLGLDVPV
Sequence of HER2 exon 20 insertion mutant (HER2ex20insYVMA, A775_G776insYVMA) (P04626 with tags, fused parts or gaps DUP772-775): as above
T1 sequence (P04626 23-1255): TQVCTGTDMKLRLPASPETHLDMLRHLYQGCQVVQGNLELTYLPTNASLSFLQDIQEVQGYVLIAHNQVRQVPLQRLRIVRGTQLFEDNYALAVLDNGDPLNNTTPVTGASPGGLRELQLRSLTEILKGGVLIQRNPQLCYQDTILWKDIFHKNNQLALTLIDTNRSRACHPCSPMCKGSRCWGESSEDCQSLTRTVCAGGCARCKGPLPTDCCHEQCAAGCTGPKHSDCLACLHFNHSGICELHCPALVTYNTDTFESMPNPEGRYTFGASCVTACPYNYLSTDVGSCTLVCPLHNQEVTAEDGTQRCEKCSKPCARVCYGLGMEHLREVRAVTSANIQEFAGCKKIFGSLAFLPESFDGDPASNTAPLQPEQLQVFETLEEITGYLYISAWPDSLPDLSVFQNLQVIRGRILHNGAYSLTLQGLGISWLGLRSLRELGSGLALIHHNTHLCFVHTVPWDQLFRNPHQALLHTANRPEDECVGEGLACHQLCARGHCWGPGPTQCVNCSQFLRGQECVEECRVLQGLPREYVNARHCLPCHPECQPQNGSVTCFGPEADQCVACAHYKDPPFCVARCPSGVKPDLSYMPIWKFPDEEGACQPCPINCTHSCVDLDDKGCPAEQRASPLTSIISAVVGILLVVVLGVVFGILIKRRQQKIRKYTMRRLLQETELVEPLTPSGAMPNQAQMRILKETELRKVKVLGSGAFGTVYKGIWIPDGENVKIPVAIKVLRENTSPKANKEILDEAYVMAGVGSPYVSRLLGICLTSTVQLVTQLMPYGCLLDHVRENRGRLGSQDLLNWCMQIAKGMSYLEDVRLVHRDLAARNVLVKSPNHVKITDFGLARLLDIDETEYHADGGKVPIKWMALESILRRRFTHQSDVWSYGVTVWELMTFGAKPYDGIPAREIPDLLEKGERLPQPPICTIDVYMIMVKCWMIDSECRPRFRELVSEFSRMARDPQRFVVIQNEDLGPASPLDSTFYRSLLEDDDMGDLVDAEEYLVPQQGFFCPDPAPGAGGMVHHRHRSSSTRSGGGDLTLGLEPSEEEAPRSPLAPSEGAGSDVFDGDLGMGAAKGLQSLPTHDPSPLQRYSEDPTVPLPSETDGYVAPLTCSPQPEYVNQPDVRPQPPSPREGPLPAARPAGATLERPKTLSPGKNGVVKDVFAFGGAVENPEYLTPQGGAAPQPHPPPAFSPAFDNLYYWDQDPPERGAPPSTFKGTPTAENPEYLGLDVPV

As to `C=CC(=O)N1C[C@H](n2c(C#CCC)c(C(=O)N[C@H](C)c3ccccc3)c3c(N)ncnc32)C[C@@H]1C` [Example 14, 7-((3R,5S)-1-acryloyl-5-methylpyrrolidin-3-yl)-4-amino-6-(but-1-yn-1-yl)-N—((R)-1-phenylethyl)-7H-pyrrolo[2,3-d]pyrimidine-5-carboxamide], the IC50 at HER2 is 2.2 nM; in series [3], less than 0.3 nM; in the series on SK-BR-3 cells it was 8.1 nM. Moreover, the figures for the concentration at 0.5 h in series [1] (setting [4]) and in series [1] (setting [5]) were 2.1 µM and 9.9 µM, respectively. In addition, in series [1] (brain), the Kp at 0.5 h is 0.21. In addition, the area under the curve AUC(0-t) in series [2] was found to be 27 µM·h. Moreover, the GI50 at Ba/F3-HER2insYVMA cells was 27 nM.

On to `C=CC(=O)N1C[C@H](n2c(C#CC3CC3)c(C(=O)N[C@H](C)c3ccccc3)c3c(N)ncnc32)C[C@@H]1C` [Example 11, 7-((3R,5S)-1-acryloyl-5-methylpyrrolidin-3-yl)-4-amino-6-(cyclopropylethynyl)-N—((R)-1-phenylethyl)-7H-pyrrolo[2,3-d]pyrimidine-5-carboxamide], for which the IC50 was 3.2 nM on HER2, less than 0.3 nM in series [3] and 6.6 nM in the series on SK-BR-3 cells. In addition, the concentration at 0.5 h in series [1] (setting [4]) amounted to 2.7 µM; in series [1] (setting [5]) it was 12 µM. The Kp at 0.5 h in series [1] (brain) came to 0.23. Also, the area under the curve AUC(0-t) in series [2] was 31 µM·h. Moreover, the GI50 at Ba/F3-HER2insYVMA cells was 29 nM.

As to `C=CC(=O)N1C[C@H](n2c(C#CC)c(C(=O)N[C@H](C)c3ccccc3)c3c(N)ncnc32)C[C@@H]1CC` [Example 16, 7-((3R,5S)-1-acryloyl-5-ethylpyrrolidin-3-yl)-4-amino-N—((R)-1-phenylethyl)-6-(prop-1-yn-1-yl)-7H-pyrrolo[2,3-d]pyrimidine-5-carboxamide], the values for the IC50 (at HER2; in series [3]; in the series on SK-BR-3 cells) were 3.3 nM, 0.44 nM and 1.4 nM, respectively. In addition, the concentration at 0.5 h in series [1] (setting [4]) was determined as 4.4 µM; in series [1] (setting [5]) it was 12 µM. For the same molecule, in series [1] (brain), the Kp at 0.5 h turned out to be 0.35. This molecule also gave an AUC(0-t) in series [2] of 15 µM·h. Besides, the GI50 at Ba/F3-HER2insYVMA cells worked out at 9.7 nM.

For `C=CC(=O)N1C[C@H](n2c(C#CC)c(C(=O)N[C@H](C)c3cc(F)cc(F)c3)c3c(N)ncnc32)C[C@@H]1C` [Example 1, 7-(R)-((3R,5S)-1-acryloyl-5-methylpyrrolidin-3-yl)-4-amino-N—((R)-1-(3,5-difluorophenyl)ethyl)-6-(prop-1-yn-1-yl)-7H-pyrrolo[2,3-d]pyrimidine-5-carboxamide], the IC50 at HER2 turned out to be 2.7 nM; in series [3], 0.34 nM; with SK-BR-3 cells, 9.3 nM. In addition, the values for the concentration at 0.5 h in series [1] (setting [4]) and in series [1] (setting [5]) were 1.4 µM and 9.1 µM, respectively. In series [1] (brain), the Kp at 0.5 h amounted to 0.15. Also, the AUC(0-t) in series [2] turned out to be 50 µM·h. Moreover, the GI50 at Ba/F3-HER2insYVMA cells turned out to be 17 nM.

Take `C=CC(=O)N1C[C@H](n2c(C#CC)c(C(=O)N[C@@H](c3ccccc3)C(F)(F)F)c3c(N)ncnc32)C[C@@H]1C` [Example 8, 7-((3R,5S)-1-acryloyl-5-methylpyrrolidin-3-yl)-4-amino-6-(prop-1-yn-1-yl)-N—((S)-2,2,2-trifluoro-1-phenylethyl)-7H-pyrrolo[2,3-d]pyrimidine-5-carboxamide]: the concentration for half-maximal inhibition (IC50) on HER2 was 10 nM; in series [3], less than 0.3 nM; in the series with SK-BR-3 cells, 14 nM. In addition, the concentration at 0.5 h is 3.3 µM in series [1] (setting [4]) and 9.9 µM in series [1] (setting [5]). The Kp at 0.5 h in series [1] (brain) turned out to be 0.33. Besides, in series [2], the AUC(0-t) was 15 µM·h. Also, at Ba/F3-HER2insYVMA cells, the GI50 was 26 nM.

With `C=CC(=O)N1C[C@H](n2c(C#CC)c(C(=O)N[C@H](CC)c3ccccc3)c3c(N)ncnc32)C[C@@H]1C` [Example 4, 7-((3R,5S)-1-acryloyl-5-methylpyrrolidin-3-yl)-4-amino-N—((R)-1-phenylpropyl)-6-(prop-1-yn-1-yl)-7H-pyrrolo[2,3-d]pyrimidine-5-carboxamide], the IC50 stood at 3.9 nM on HER2, 0.37 nM in series [3] and 5.6 nM with SK-BR-3 cells. Also, the concentration at 0.5 h amounted to 2.8 µM in series [1] (setting [4]) and 8.3 µM in series [1] (setting [5]). For the same molecule, the Kp at 0.5 h in series [1] (brain) came to 0.34. The same molecule displayed an AUC(0-t) in series [2] of 12 µM·h. On Ba/F3-HER2insYVMA cells, the GI50 turned out to be 20 nM.

On to `C=CC(=O)N1C[C@H](n2c(C#CC)c(C(=O)N[C@H](C)c3ccccc3)c3c(N)ncnc32)C[C@@H]1C` [Example 2, 7-((3R,5S)-1-acryloyl-5-methylpyrrolidin-3-yl)-4-amino-N—((R)-1-phenylethyl)-6-(prop-1-yn-1-yl)-7H-pyrrolo[2,3-d]pyrimidine-5-carboxamide], for which the results for the IC50 (at HER2; in series [3]; in the series with SK-BR-3 cells) were 2.5 nM, less than 0.3 nM and 2.8 nM, respectively. In addition, the concentration at 0.5 h in series [1] (setting [4]) is 1.8 µM; in series [1] (setting [5]), 6.6 µM. In series [1] (brain), the Kp at 0.5 h was 0.27. For the same molecule, in series [2], the exposure AUC(0-t) came to 15 µM·h. At Ba/F3-HER2insYVMA cells, the GI50 worked out at 12 nM.

Usually IC50 stands for the point on the concentration scale where inhibition reaches its midpoint. The AUC(0-t) is exposure summed from dosing to a finite time, without extrapolation to infinity. A low value points to low exposure.
